Reference: patent publication US20230312587A1, “PTERIDINONE COMPOUNDS AND USES THEREOF” (Vertex Pharmaceutical Incorporated, priority 2018, published 2023)

The compounds below were run on β-catenin-TCF-mediated reporter transcription activity in Colo 205 cells (assay: Colo 205 reporter assay (TCF/LEF luciferase)). Conditions: Colo 205 TCF/LEF luciferase reporter, five hours after addition of compound; read-out: TCF reporter Colo205 IC50.
Assay type: cell-based
How it was run: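 Luciferase signal from a TCF/LEF-driven reporter, stably integrated in Colo 205 colon cancer cells, was measured 5 h after compound addition.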

`COCC1(C)C(=O)Nc2c(C)nc(N[C@H]3C[C@H](Oc4cc(F)c(F)c(F)c4)C3)nc2N1C` (relative stereo) [Compound 720, 7-(methoxymethyl)-4,7,8-trimethyl-2-((trans-3-(3,4,5-trifluorophenoxy)cyclobutyl)amino)-7,8-dihydropteridin-6(5H)-one] showed an IC50 of 300 to 1000 nM.

Same assay, conditions: Homo sapiens, COLO 205, 5 h, Colo 205 TCF/LEF luciferase reporter, five hours after addition of compound; read-out: TCF reporter Colo205 IC50

`CC(=O)c1nc(C(F)(F)F)ccc1Cn1cc(CNc2nc(C)c3c(n2)N(C)[C@@H](C)C(=O)N3)cn1` [Compound 413, (7S)-2-(((1-((2-acetyl-6-(trifluoromethyl)pyridin-3-yl)methyl)-1H-pyrazol-4-yl)methyl)amino)-4,7,8-trimethyl-7,8-dihydropteridin-6(5H)-one] and `Cc1cc(F)ccc1Cn1cc(CNc2nc(C)c3c(n2)N(C)[C@@H](C)C(=O)N3)cn1` [Compound 66, (7S)-2-(((1-(4-fluoro-2-methylbenzyl)-1H-pyrazol-4-yl)methyl)amino)-4,7,8-trimethyl-7,8-dihydropteridin-6(5H)-one] cannot be ordered by IC50: less than 300 nM for the first, less than 300 nM for the second.

`Cc1nc(NCc2cnn(Cc3ccc(C4CC4)nc3)c2)nc2c1NC(=O)[C@H](C(C)C)N2C` [Compound 442, (7S)-2-(((1-((6-cyclopropylpyridin-3-yl)methyl)-1H-pyrazol-4-yl)methyl)amino)-7-isopropyl-4,8-dimethyl-7,8-dihydropteridin-6(5H)-one] and `Cc1nc(NCc2cnn(Cc3ccc(C(C)(C)C#N)nc3)c2)nc2c1NC(=O)[C@H](C(C)C)N2C` [Compound 470, (S)-2-(5-((4-(((7-isopropyl-4,8-dimethyl-6-oxo-5,6,7,8-tetrahydropteridin-2-yl)amino)methyl)-1H-pyrazol-1-yl)methyl)pyridin-2-yl)-2-methylpropanenitrile] cannot be ordered by IC50: less than 300 nM for the first, less than 300 nM for the second.

`Cc1nc(NCc2cnn(Cc3cc(F)c(F)c(F)c3)c2)nc2c1NC(=O)[C@H](C(C)(C)O)N2C` [Compound 729, (S)-7-(2-hydroxypropan-2-yl)-4,8-dimethyl-2-(((1-(3,4,5-trifluorobenzyl)-1H-pyrazol-4-yl)methyl)amino)-7,8-dihydropteridin-6(5H)-one] and `Cc1nc(NCc2cnn(CCc3cc(F)c(F)c(F)c3)c2)nc2c1NC(=O)[C@H](C)N2C` [Compound 123, (7S)-4,7,8-trimethyl-2-(((1-(3,4,5-trifluorophenethyl)-1H-pyrazol-4-yl)methyl)amino)-7,8-dihydropteridin-6(5H)-one] cannot be ordered by IC50: less than 300 nM for the first, less than 300 nM for the second.

`COc1c(F)cc(Cn2cc(CNc3nc(C)c4c(n3)N(C)[C@@H](C3CC3)C(=O)N4)cn2)cc1F` [Compound 457, (S)-7-cyclopropyl-2-(((1-(3,5-difluoro-4-methoxybenzyl)-1H-pyrazol-4-yl)methyl)amino)-4,8-dimethyl-7,8-dihydropteridin-6(5H)-one] and `Cc1nc(NCc2cnn(CC3CC(F)(F)C3)c2)nc2c1NC(=O)[C@H](C)N2C` [Compound 61, (7S)-2-(((1-((3,3-difluorocyclobutyl)methyl)-1H-pyrazol-4-yl)methyl)amino)-4,7,8-trimethyl-7,8-dihydropteridin-6(5H)-one] cannot be ordered by IC50: less than 300 nM for the first, less than 300 nM for the second.

`Cc1nc(N[C@@H]2CC[C@H](NC(=O)c3cc(F)c(F)c(F)c3)C2)nc2c1NC(=O)[C@H](C)N2C` (mixture of isomers) [Compound 298, 3,4,5-trifluoro-N-(cis-3-(((S)-4,7,8-trimethyl-6-oxo-5,6,7,8-tetrahydropteridin-2-yl)amino)cyclopentyl)benzamide] and `COCC1(C)C(=O)Nc2c(C)nc(NC3CN(C(=O)c4cc(F)c(F)c(F)c4)C3)nc2N1C` (centres unmarked) [Compound 721, 7-(methoxymethyl)-4,7,8-trimethyl-2-((1-(3,4,5-trifluorobenzoyl)azetidin-3-yl)amino)-7,8-dihydropteridin-6(5H)-one] fall in the same range of IC50: 1000 to 5000 nM for the first, 1000 to 5000 nM for the second.

`Cc1nc(NC2CN(C(=O)C3CCCCO3)C2)nc2c1NC(=O)[C@H](C(C)C)N2C` (stereo partly drawn) [Compound 611, (7S)-7-isopropyl-4,8-dimethyl-2-((1-(tetrahydro-2H-pyran-2-carbonyl)azetidin-3-yl)amino)-7,8-dihydropteridin-6(5H)-one] and `Cc1nc(NC2CN(C(=O)[C@H](C)c3ccccc3)C2)nc2c1NC(=O)[C@H](C(C)C)N2C` [Compound 627, (S)-7-isopropyl-4,8-dimethyl-2-((1-((R)-2-phenylpropanoyl)azetidin-3-yl)amino)-7,8-dihydropteridin-6(5H)-one] cannot be ordered by IC50: no less than 5000 nM for the first, 1000 to 5000 nM for the second.

`Cc1nc(N[C@H]2C[C@@H](COc3ccc(F)cc3C#N)C2)nc2c1NC(=O)[C@H](C)N2C` [Compound 277, 5-fluoro-2-((cis-3-(((7S)-4,7,8-trimethyl-6-oxo-5,6,7,8-tetrahydropteridin-2-yl)amino)cyclobutyl)methoxy)benzonitrile] and `Cc1nc(N[C@H]2C[C@@H](COc3ccc(F)cc3)C2)nc2c1NC(=O)[C@H](C)N2C` [Compound 261, (7S)-2-((cis-3-((4-fluorophenoxy)methyl)cyclobutyl)amino)-4,7,8-trimethyl-7,8-dihydropteridin-6(5H)-one] cannot be ordered by IC50: less than 300 nM for the first, less than 300 nM for the second.

Compared with `Cc1nc(NCc2ncn(Cc3ccc(OC(F)(F)F)cc3)n2)nc2c1NC(=O)[C@H](C(C)C)N2C` [Compound 489, (S)-7-isopropyl-4,8-dimethyl-2-(((1-(4-(trifluoromethoxy)benzyl)-1H-1,2,4-triazol-3-yl)methyl)amino)-7,8-dihydropteridin-6(5H)-one], `Cc1nc(NCc2cnn(CC3CC(F)(F)C3)c2)nc2c1NC(=O)[C@H](C(C)C)N2C` [Compound 727, (S)-2-(((1-((3,3-difluorocyclobutyl)methyl)-1H-pyrazol-4-yl)methyl)amino)-7-isopropyl-4,8-dimethyl-7,8-dihydropteridin-6(5H)-one] is lower in IC50: no less than 5000 nM for the first, less than 300 nM for the second.

First: CC[C@H]1C(=O)Nc2c(C)nc(N[C@H]3C[C@@H](Nc4cnc(C(F)(F)F)cn4)C3)nc2N1C [Compound 648, (S)-7-ethyl-4,8-dimethyl-2-((cis-3-((5-(trifluoromethyl)pyrazin-2-yl)amino)cyclobutyl)amino)-7,8-dihydropteridin-6(5H)-one]
Second: CC[C@H]1C(=O)Nc2c(C)nc(N[C@H]3C[C@@H](Cn4ccc(C(F)(F)F)n4)C3)nc2N1C [Compound 692, (S)-7-ethyl-4,8-dimethyl-2-((cis-3-((3-(trifluoromethyl)-1H-pyrazol-1-yl)methyl)cyclobutyl)amino)-7,8-dihydropteridin-6(5H)-one]
The IC50 of the first is lower: less than 300 nM for the first, 300 to 1000 nM for the second. The first is the more potent here.

First: CC[C@H]1C(=O)N(C)c2cnc(NCc3cnn(Cc4cc(F)c(F)c(F)c4)c3)nc2N1CC(F)(F)F [Compound 33, (7S)-7-ethyl-5-methyl-2-(((1-(3,4,5-trifluorobenzyl)-1H-pyrazol-4-yl)methyl)amino)-8-(2,2,2-trifluoroethyl)-7,8-dihydropteridin-6(5H)-one]
Second: CCN1C(=O)[C@](C)(CC)N(CC)c2nc(NCc3cnn(Cc4cc(F)c(F)c(F)c4)c3)ncc21 [Compound 35, (7S)-5,7,8-triethyl-7-methyl-2-(((1-(3,4,5-trifluorobenzyl)-1H-pyrazol-4-yl)methyl)amino)-7,8-dihydropteridin-6(5H)-one]
The IC50 of the first is higher: 300 to 1000 nM for the first, less than 300 nM for the second.

First: Cc1nc(N[C@H]2C[C@@H](Cn3cncc3C(F)(F)F)C2)nc2c1NC(=O)[C@H](C(C)C)N2C [Compound 679, (S)-7-isopropyl-4,8-dimethyl-2-((cis-3-((5-(trifluoromethyl)-1H-imidazol-1-yl)methyl)cyclobutyl)amino)-7,8-dihydropteridin-6(5H)-one]
Second: Cc1nc(N[C@H]2C[C@@H](COc3cnn(C)c3C(F)(F)F)C2)nc2c1NC(=O)[C@H](C(C)C)N2C [Compound 575, (S)-7-isopropyl-4,8-dimethyl-2-((cis-3-(((1-methyl-5-(trifluoromethyl)-1H-pyrazol-4-yl)oxy)methyl)cyclobutyl)amino)-7,8-dihydropteridin-6(5H)-one]
The IC50 of the first is higher: 300 to 1000 nM for the first, less than 300 nM for the second.

`CN1C(=O)C2(CC2)N(C)c2nc(NCc3cnn(Cc4ccc(F)cc4)c3)ncc21` [Compound 227, 2′-(((1-(4-fluorobenzyl)-1H-pyrazol-4-yl)methyl)amino)-5′,8′-dimethyl-5′,8′-dihydro-6′H-spiro[cyclopropane-1,7′-pteridin]-6′-one] and `Cc1nc(N[C@H]2C[C@@H](Sc3ccc(F)cc3)C2)nc2c1NC(=O)[C@H](C)N2C` [Compound 304, (7S)-2-((cis-3-((4-fluorophenyl)thio)cyclobutyl)amino)-4,7,8-trimethyl-7,8-dihydropteridin-6(5H)-one] fall in the same range of IC50: 300 to 1000 nM for the first, 300 to 1000 nM for the second.

Compared with `Cc1nc(N[C@H]2C[C@@H](Nc3nc(C(F)(F)F)nn3C)C2)nc2c1NC(=O)[C@H](C(C)C)N2C` [Compound 569, (S)-7-isopropyl-4,8-dimethyl-2-((cis-3-((1-methyl-3-(trifluoromethyl)-1H-1,2,4-triazol-5-yl)amino)cyclobutyl)amino)-7,8-dihydropteridin-6(5H)-one], `Cc1nc(N[C@H]2C[C@@H](COc3ccc(C(F)(F)F)nc3)C2)nc2c1NC(=O)C1(CCOC1)N2C` (relative stereo) [Compound 697, 4′,8′-dimethyl-2′-((cis-3-(((6-(trifluoromethyl)pyridin-3-yl)oxy)methyl)cyclobutyl)amino)-4,5,5′,8′-tetrahydro-2H,6′H-spiro[furan-3,7′-pteridin]-6′-one] is lower in IC50: 1000 to 5000 nM for the first, 300 to 1000 nM for the second. The second is the more potent here.

`Cc1nc(N[C@@H]2COC[C@H]2Oc2ccc(F)cc2)nc2c1NC(=O)[C@H](C)N2C` (mixture of isomers) [Compound 297, (7S)-2-((trans-4-(4-fluorophenoxy)tetrahydrofuran-3-yl)amino)-4,7,8-trimethyl-7,8-dihydropteridin-6(5H)-one] was tested, and the IC50 was no less than 5000 nM.

Same assay, conditions: Homo sapiens, COLO 205, 5 h, Colo 205 cells with stably transfected TCF/LEF luciferase reporter; five hours after addition of compound; read-out: TCF reporter Colo205

Work on `Cc1nc(N(Cc2cnn(Cc3ccc(C(F)(F)F)nc3)c2)C(=O)NC2CCCCC2)nc2c1NC(=O)[C@H](C)N2C` [Compound 401, (7S)-3-cyclohexyl-1-((1-((6-(trifluoromethyl)pyridin-3-yl)methyl)-1H-pyrazol-4-yl)methyl)-1-(4,7,8-trimethyl-6-oxo-5,6,7,8-tetrahydropteridin-2-yl)urea] yielded an IC50 of no less than 5000 nM.
